Earlier results on one molecule are cited in patent EP2637695B1, “OLMESARTAN FORMULATIONS” (Abdi Ibrahim Ilac Sanayi ve Ticaret Anonim Sirketi, priority 2010, dated 2012).

Molecules are shown by their SMILES. Where two headings read alike, the source gives them in different places.

For data set [1] the following is noted: in humans.

As for `CCCc1nc(C(C)(C)O)c(C(=O)OCc2oc(=O)oc2C)n1Cc1ccc(-c2ccccc2-c2nnn[nH]2)cc1` [Olmesartan medoxomil, (5-methyl-2-oxo-1,3-dioxolen-4-yl)rnethyl 4-(1-hydroxy-1-methylethyl)-2-propyl-1-{4-[2-(tetrazol-5-yl)phenyl]phenyl}methylimidazole-5-carboxylate], the “bioavailability (BA)” value in data set [1] was “approximately 26%”. Besides, the solubility result reads like this: (in 17 hydrochloric acid) “insoluble”; (in strong acid) “sparingly soluble”; (in strong base) “soluble”; (in water and in the pH range of 3 to 9) “practically insoluble”.
